The subject of experiment [1] is Ebola virus. In words: microbe, parasite or virus in culture. It counts as cell-based, Ebolavirus (EBOV). Details: Max Effect HepG2: unit not given here.
Experiment [2] has as its system Ebola virus. The experiment in a line: microbe, parasite or virus in culture. The experiment is classed as cell-based, Ebolavirus (EBOV). Particulars: for Emax: read-out: Max Effect.

pIC50: −log10 of the molar value. Structures can show the parent of a compound that is named as a salt. Where two headings read alike, the source gives them in different places. Residues, ends and D or L forms follow the SMILES beside them. *: point of attachment. Cbz = O=C(OCc1ccccc1)* Bounds are passed on as bounds.

On to `Cl.Cl.OCCN1CCN(CCC=C2c3ccccc3Sc3ccc(C(F)(F)F)cc32)CC1` (mixture of isomers) [Flupentixol Dihydrochloride], for which the “Max Effect HepG2” value in the experiment on Ebola virus [1] turned out to be 0.744. In addition, in the experiment on Ebola virus [2], the “Max Effect” value was 0.660 and the “Max Effect Vero” value turned out to be 0.959.
For `COc1ccc(-c2nc(C(=O)N3CCN(C)CC3)sc2-c2ccc(OC)cc2)cc1` [FR122047], the “Max Effect” value with Ebola virus [2] amounted to 0.688. Besides, the pIC50 in the experiment on Ebola virus [2] (read-out: IC50) was 5.43.
The matching figures for Cetrimide: 0.692 and 5.25.
Turning to `COc1ccc2cc1Oc1ccc(cc1)C[C@H]1c3c(cc4c(c3Oc3cc5c(cc3OC)CCN(C)[C@@H]5C2)OCO4)CCN1C` [Cepharanthine], in the experiment on Ebola virus [2] (Zaire ebolavirus, Vero), the pIC50 is 5.25 and the Emax was found to be 65.2%.
The corresponding values for `CC[C@H]1CN2CCc3cc(OC)c(OC)cc3[C@@H]2C[C@@H]1C[C@H]1NCCc2cc(OC)c(OC)cc21` [Emetine dihydrochloride hydrate] are 6.52 and 89.3%.
With Chondroitin Sulfate, the “Max Effect” value in the experiment with Ebola virus [2] stood at 0.535. For the same compound, the negative-log IC50 (pIC50) in the experiment with Ebola virus [2] (read-out: IC50) was 4.94.
For `CC(=O)OC[C@H]1O[C@@H]([S-])[C@H](OC(C)=O)[C@@H](OC(C)=O)[C@@H]1OC(C)=O.CCP(CC)CC.[Au+]` [Auranofin], the negative-log IC50 (pIC50) in the experiment with Ebola virus [2] (read-out: IC50) was above 6.00.
As for `CCCCCCCCCCCC[N+](C)(C)CCOc1ccccc1` [Domiphen Bromide], in the experiment with Ebola virus [2] (Zaire ebolavirus, Vero), the pIC50 was 5.12 and the Emax was 71.5%.
The corresponding values for `c1ccc2c(c1)[I+]c1ccccc1-2` [Diphenyleneiodonium chloride] are above 5.80 and 80%.
Consider `CC(C(=O)[O-])c1cccc(Oc2ccccc2)c1.CC(C(=O)[O-])c1cccc(Oc2ccccc2)c1.[Ca+2]` (stereo not shown) [Fenoprofen Calcium], for which the “Max Effect” value in the experiment with Ebola virus [2] is reported as 0.454.
With `Oc1c2ccccc2c2c3c(cccc13)N=N2` [SP 600125], the Emax in the experiment on Ebola virus [2] (Zaire ebolavirus, Vero) worked out at 36.5%.
On to `CCOC(=O)N1CCC(=C2c3ccc(Cl)cc3CCc3cccnc32)CC1` [Loratadine], for which the Emax with Ebola virus [2] (Zaire ebolavirus, Vero) is 37.1%.
Take `CC(C)c1nc(CN(C)C(=O)N[C@H](C(=O)N[C@@H](Cc2ccccc2)C[C@H](O)[C@H](Cc2ccccc2)NC(=O)OCc2cncs2)C(C)C)cs1` [Ritonavir]: the Emax in the experiment with Ebola virus [2] (Zaire ebolavirus, Vero) amounted to 48.5%.
Consider `CN1CCN(C(c2ccccc2)c2ccc(Cl)cc2)CC1` (stereo not shown) [Chlorcyclizine Hydrochloride], for which, in the experiment on Ebola virus [2] (Zaire ebolavirus, Vero), the Emax is 45.6%.
Turning to `Nc1ccc(C(=O)N[C@@H](CCC(=O)O)C(=O)O)cc1` [N-(4-Aminobenzoyl)-L-glutamic acid], in the experiment on Ebola virus [2] (Zaire ebolavirus, Vero), the pIC50 is 5.01 and the Emax was found to be 85.5%.
Regarding `CSc1nc2cc(Cl)c(Oc3cccc(Cl)c3Cl)cc2[nH]1` [Triclabendazole], in the experiment on Ebola virus [2] (Zaire ebolavirus, Vero), the negative-log IC50 (pIC50) is 5.04 and the Emax is 55.2%.
For `CN(C)CCOC(C)(c1ccccc1)c1ccc(Cl)cc1` (stereo not shown) [Chlorphenoxamine Hydrochloride], in the experiment with Ebola virus [2] (Zaire ebolavirus, Vero), the negative logarithm of the IC50 (pIC50) is 5.30 and the Emax turned out to be 78.9%.
The matching figures for `CC(C)C[C@@H](C=O)NC(=O)[C@H](CC(C)C)NC(=O)[C@H](CC(C)C)NC(=O)OCc1ccccc1` [MG-132] (Cbz-Leu-Leu-Leu-aldehyde): above 6.22 and 90%.
For `CCOc1ccc(/C=C2\NCCc3cc(OCC)c(OCC)cc32)cc1OCC` [Drotaverine Hydrochloride], in the experiment with Ebola virus [2] (Zaire ebolavirus, Vero), the Emax amounted to 36.7%.
For the compound `Cc1cc(/C=C/c2ccc3cc(N(C)C)ccc3[n+]2C)c(C)n1-c1ccccc1` [Pyrvinium Pamoate], in the experiment on Ebola virus [2] (Zaire ebolavirus, Vero), the pIC50 is 5.47 and the Emax was determined as 80%.
Take `CC(C)[C@]12O[C@H]1[C@@H]1O[C@]13[C@]1(O[C@H]1C[C@H]1C4=C(CC[C@@]13C)C(=O)OC4)[C@@H]2O` [Triptolide]: in the experiment with Ebola virus [2] (Zaire ebolavirus, Vero), the negative-log IC50 (pIC50) was above 7.00 and the Emax was determined as 85%.
In the case of `O=c1cnn([C@@H]2O[C@H](CO)[C@@H](O)[C@H]2O)c(=O)[nH]1` [Agent 6-Azauridine, 6-Azauridine], in the experiment with Ebola virus [2] (Zaire ebolavirus, Vero), the pIC50 is above 6.00 and the Emax was determined as 80%.
Turning to `COC(=O)Nc1nc2ccc(C(=O)c3ccccc3)cc2[nH]1` [Mebendazole], in the experiment on Ebola virus [2] (Zaire ebolavirus, Vero), the pIC50 is 6.15 and the Emax worked out at 50%.
`Nc1nc(-c2nn(Cc3ccccc3F)c3ncccc23)ncc1C1CC1` [Bay 41-2272]: the “Max Effect” value in the experiment on Ebola virus [2] was 0.900. The pIC50 in the experiment with Ebola virus [2] (read-out: IC50) is above 6.30.
`CC[C@H]1/C=C/C=C/C[C@@H](C)[C@H](O)[C@@](C)(O)C(=O)[C@@H](C)[C@H](O)[C@@H](C)C(=O)[C@@H](C)[C@H](O)[C@@H](C)/C=C/C(=O)O[C@@H]2[C@H](C)[C@H](CC1)O[C@]1(CC[C@H](C)[C@H](C[C@@H](C)O)O1)[C@H]2C` [Oligomycin]: in the experiment with Ebola virus [2] (Zaire ebolavirus, Vero), the Emax was 42.6%.
Turning to `CCN(CC)CCNC(=O)c1c(C)[nH]c(/C=C2\C(=O)Nc3ccc(F)cc32)c1C` [Sunitinib Malate], in the experiment with Ebola virus [2] (Zaire ebolavirus, Vero), the negative-log IC50 (pIC50) was 5.36 and the Emax was found to be 78.8%.
Turning to `CN(C)C(=O)C(CCN1CCC(O)(c2ccc(Cl)cc2)CC1)(c1ccccc1)c1ccccc1` [Loperamide Hydrochloride], in the experiment with Ebola virus [2] (Hydrochloride), the “Max Effect” value was 0.418.
For `CCSc1ccc2c(c1)N(CCCN1CCN(C)CC1)c1ccccc1S2` [Thiethylperazine Maleate], in the experiment with Ebola virus [2] (Zaire ebolavirus, Vero), the pIC50 was 5.36 and the Emax is 83.2%.
With `OCCN1CCN(CCCN2c3ccccc3Sc3ccc(Cl)cc32)CC1` [Perphenazine], in the experiment with Ebola virus [2] (Zaire ebolavirus, Vero), the pIC50 is 5.24 and the Emax was 79.3%.
For the compound `COc1ccc(OC)c2c(=S)c3ccccc3[nH]c12` [NSC 625987], the “Max Effect” value in the experiment on Ebola virus [2] was found to be 0.418.
Turning to `COC(=O)Nc1nc2ccc(Sc3ccccc3)cc2[nH]1` [Fenbendazole], in the experiment on Ebola virus [2] (Zaire ebolavirus, Vero), the pIC50 is 5.24 and the Emax is 50%.
With `C/C1=C/C(=O)O[C@@H]2C[C@@H](CC[C@H](C)/C=C\CC1)O[C@@](O)([C@@H]1CSC(=O)N1)C2` [Latrunculin B], the “Max Effect” value in the experiment on Ebola virus [2] was determined as 0.621. Besides, in the experiment on Ebola virus [2] (read-out: IC50), the pIC50 was 6.40.
`CC(O)(CS(=O)(=O)c1ccc(F)cc1)C(=O)Nc1ccc(C#N)c(C(F)(F)F)c1` (stereo not shown) [Bicalutamide]: in the experiment with Ebola virus [2] (Zaire ebolavirus, Vero), the Emax is 46.4%.
`CSc1ccc2c(c1)N(CCC1CCCCN1C)c1ccccc1S2.Cl` (stereo not shown) [Thioridazine Hydrochloride]: in the experiment with Ebola virus [2], the “Max Effect” value amounted to 0.915 and the “Max Effect Vero” value worked out at 0.954. Also, in the experiment on Ebola virus [2] (read-out: IC50), the pIC50 was 5.37. Moreover, the half-maximal inhibitory concentration (IC50) in the experiment with Ebola virus [2] (read-out: IC50 (μM) Vero) was determined as 6.2 µM.
With `CC/C(=C(/CC)c1ccc(O)cc1)c1ccc(O)cc1` [Diethylstilbestrol], the Emax with Ebola virus [2] (Zaire ebolavirus, Vero) turned out to be 43.6%.
Regarding Beta Escin, the “Max Effect” value with Ebola virus [2] is 0.878.
As to `NC(=O)c1cn([C@@H]2O[C@H](CO)[C@@H](O)[C@H]2O)c2ncnc(N)c12` [Sangivamycin Hydrate], in the experiment with Ebola virus [2] (Zaire ebolavirus, Vero), the pIC50 is above 6.70 and the Emax worked out at 90%.
As for `[O-][n+]1ccccc1[S-].[O-][n+]1ccccc1[S-].[Zn+2]` [Pyrithione Zinc], the “Max Effect” value with Ebola virus [2] stood at 0.767.
Turning to `CN1CCN(CCCN2c3ccccc3Sc3ccc(C(F)(F)F)cc32)CC1` [Trifluoperazine Hydrochloride], in the experiment on Ebola virus [2] (Zaire ebolavirus, Vero), the pIC50 was 5.30 and the Emax was 95.5%.
On to `C=C1[C@@H](O)[C@@H]2O[C@]3(CC[C@H](/C=C/[C@@H](C)[C@@H]4CC(C)=C[C@@]5(O[C@H](C[C@@](C)(O)C(=O)O)CC[C@H]5O)O4)O3)CC[C@H]2O[C@@H]1[C@@H](O)C[C@H](C)[C@H]1O[C@@]2(CCCCO2)CC[C@H]1C` [Okadaic Acid], for which the Emax with Ebola virus [2] (Zaire ebolavirus, Vero) was determined as 48.8%.
With `CN1CCCN(C(c2ccccc2)c2ccc(Cl)cc2)CC1` (stereo not shown) [Homochlorcyclizine dihydrochloride], in the experiment with Ebola virus [2] (Zaire ebolavirus, Vero), the pIC50 is 5.06 and the Emax was determined as 50.8%.
With `NC(=O)C[C@H](N)C(=O)O` [L-Asparagine], in the experiment with Ebola virus [2] (Zaire ebolavirus, Vero), the pIC50 was 5.14 and the Emax is 77.1%.
For the compound `O=C(OC[C@H]1O[C@@H](OC(=O)c2cc(O)c(O)c(OC(=O)c3cc(O)c(O)c(O)c3)c2)[C@H](OC(=O)c2cc(O)c(O)c(OC(=O)c3cc(O)c(O)c(O)c3)c2)[C@@H](OC(=O)c2cc(O)c(O)c(OC(=O)c3cc(O)c(O)c(O)c3)c2)[C@@H]1OC(=O)c1cc(O)c(O)c(OC(=O)c2cc(O)c(O)c(O)c2)c1)c1cc(O)c(O)c(OC(=O)c2cc(O)c(O)c(O)c2)c1` [Tannic Acid], the Emax in the experiment on Ebola virus [2] (Zaire ebolavirus, Vero) came to 54.3%.
As for `Fc1ccc(C(c2ccc(F)cc2)N2CCN(C/C=C/c3ccccc3)CC2)cc1` [Flunarizine Hydrochloride], the Emax in the experiment with Ebola virus [2] (Zaire ebolavirus, Vero) is 40.2%.
As for `O=C(OC[C@H]1O[C@@H](OC(=O)c2cc(O)c(O)c(O)c2)[C@H](OC(=O)c2cc(O)c(O)c(O)c2)[C@@H](OC(=O)c2cc(O)c(O)c(O)c2)[C@@H]1OC(=O)c1cc(O)c(O)c(O)c1)c1cc(O)c(O)c(O)c1` [PGG (1,2,3,4,6-b-O-Pentagalloyl glucose), 1,2,3,4,6-b-O-Pentagalloyl glucose], the “Max Effect” value with Ebola virus [2] turned out to be 0.487. Besides, the negative-log IC50 (pIC50) in the experiment with Ebola virus [2] (read-out: IC50) is 5.49.
Turning to `Clc1ccc(C(Cn2ccnc2)OCc2ccsc2Cl)c(Cl)c1` (stereo not shown) [Tioconazole], in the experiment on Ebola virus [2] (Zaire ebolavirus, Vero), the pIC50 is 5.07 and the Emax came out at 72.9%.
`COc1cc([C@@H]2c3cc4c(cc3[C@H](O)[C@H]3COC(=O)[C@H]23)OCO4)cc(OC)c1OC` [Podofilox]: in the experiment with Ebola virus [2] (Zaire ebolavirus, Vero), the pIC50 is 5.74 and the Emax was 80%.
As to `C#C[C@]1(O)CC[C@H]2[C@@H]3CCc4cc(OC5CCCC5)ccc4[C@H]3CC[C@@]21C` [Quinestrol], in the experiment with Ebola virus [2] (Zaire ebolavirus, Vero), the pIC50 was 5.14 and the Emax is 54.9%.
Take `COC(=O)Nc1nc2ccc(C(=O)c3cccs3)cc2[nH]1` [Nocodazole]: in the experiment on Ebola virus [2] (Zaire ebolavirus, Vero), the pIC50 was 6.30 and the Emax was 80%.
Take `C[C@@H]1C[C@@H]([C@H](O)CC2CC(=O)NC(=O)C2)C(=O)[C@@H](C)C1` [Cycloheximide]: in the experiment with Ebola virus [2] (Zaire ebolavirus, Vero), the negative-log IC50 (pIC50) is above 5.80 and the Emax was found to be 90%.
Take `N[C@H]1CC[C@@H](c2ccc(Cl)c(Cl)c2)c2ccccc21` [(1S,4S)-Desmethyl Sertraline, Hydrochloride]: in the experiment on Ebola virus [2] (Zaire ebolavirus, Vero), the negative-log IC50 (pIC50) is 5.89 and the Emax was determined as 68.8%.
Consider Nonoxynol-9, for which the “Max Effect” value with Ebola virus [2] is on record as 0.535. Also, in the experiment on Ebola virus [2] (read-out: IC50), the pIC50 is 5.06.
Take `Nc1[nH]c(=O)ncc1F` [Flucytosine]: in the experiment on Ebola virus [2] (Zaire ebolavirus, Vero), the pIC50 is 5.36 and the Emax stood at 79.3%.
Turning to `CN(C)CCCN1c2ccccc2Sc2ccc(C(F)(F)F)cc21` [Triflupromazine Hydrochloride], in the experiment on Ebola virus [2] (Zaire ebolavirus, Vero), the pIC50 was 4.92 and the Emax is 54.1%.

The record behind these values is patent US8475804B2 (priority 2009, dated 2013).
